Publication PMC10141580, “Cyclic Dichalcogenides Extend the Reach of Bioreductive Prodrugs to Harness Thiol/Disulfide Oxidoreductases: Applications to seco-Duocarmycins Targeting the Thioredoxin System” (ACS Central Science, 2023)
Where “and” joins values, the source holds several entries; their conditions need not be identical. Identical values can stand only once. Like-named read-outs stand apart in the source and are kept apart here.

Tested on: panel of 140 standard cancer cell lines
Experiment: ProliFiler-140 cancer cell line screen (CellTiterGlo, 72 h)
Format: cell-based
Description: Incubations were performed for 72 h before automated viability readout with CellTiterGlo (Figure 8).
End of Figure S11 (part 5 of 5): ProliFiler-140 cancer cell line screening for cytotoxicity of the prodrugs.
8-data-point dose response curves from CellTiter-Glo® viability readout.
ProliFiler-140 cell line panel part V

COc1cc2cc(C(=O)N3C[C@@H](CCl)c4c3cc(OC(=O)N(CCC(=O)N3CCN(C)CC3)C3CCCCC3)c3ccccc43)[nH]c2c(OC)c1OC [P-CC60-CBI-TMI]
IC50 (786-O (Kidney), read-out: IC50 [M] (ProliFiler-140)): 1.18e-07 M and 1.2e-07 M | IC50 (786-O, read-out: IC50): 1.2e-07 M | IC50 (A172 (Brain), read-out: IC50 [M] (ProliFiler-140)): 5.74e-07 M and 5.7e-07 M | IC50 (A375 (Skin), read-out: IC50 [M] (ProliFiler-140)): 1.64e-07 M and 1.6e-07 M | IC50 (A427 (Lung), read-out: IC50 [M] (ProliFiler-140)): 8.2e-07 M and 8.23e-07 M | IC50 (A431 (Skin), read-out: IC50 [M] (ProliFiler-140)): 2.62e-07 M and 2.6e-07 M | IC50 (A498 (Kidney), read-out: IC50 [M] (ProliFiler-140)): 3e-07 M | IC50 (A498, read-out: IC50): 3e-07 M | IC50 (A549 (Lung), read-out: IC50 [M] (ProliFiler-140)): 7.7e-07 M | IC50 (A549, read-out: IC50): 7.7e-07 M | IC50 (A2058 (Skin), read-out: IC50 [M] (ProliFiler-140)): 1e-07 M and 1.02e-07 M | IC50 (A2780 (Ovary), read-out: IC50 [M] (ProliFiler-140)): 8.9e-08 M and 8.89e-08 M | IC50 (AsPC-1 (Pancreas), read-out: IC50 [M] (ProliFiler-140)): 2.1e-06 M and 2.15e-06 M | IC50 (BEN (Lung), read-out: IC50 [M] (ProliFiler-140)): 1.4e-06 M and 1.42e-06 M | IC50 (BT-20 (Breast), read-out: IC50 [M] (ProliFiler-140)): 1.1e-06 M and 1.11e-06 M | IC50 (BxPC-3 (Pancreas), read-out: IC50 [M] (ProliFiler-140)): 6.62e-07 M and 6.6e-07 M | IC50 (CAKI-1, read-out: IC50): 3.3e-07 M | IC50 (COR-L279 (Lung), read-out: IC50 [M] (ProliFiler-140)): 7.4e-08 M and 7.36e-08 M | IC50 (COV434 (Ovary), read-out: IC50 [M] (ProliFiler-140)): 1.1e-07 M and 1.15e-07 M | IC50 (Caki-1 (Kidney), read-out: IC50 [M] (ProliFiler-140)): 3.29e-07 M and 3.3e-07 M | IC50 (Caki-2 (Kidney), read-out: IC50 [M] (ProliFiler-140)): 1.51e-06 M and 1.5e-06 M | IC50 (Calu-6 (Lung), read-out: IC50 [M] (ProliFiler-140)): 3.42e-07 M and 3.4e-07 M | IC50 (Colo 205 (Colon), read-out: IC50 [M] (ProliFiler-140)): 7.6e-07 M and 7.61e-07 M | IC50 (DLD-1 (Colon), read-out: IC50 [M] (ProliFiler-140)): 7.91e-07 M and 7.9e-07 M | IC50 (DU-145 (Prostate), read-out: IC50 [M] (ProliFiler-140)): 1.8e-07 M and 1.83e-07 M | IC50 (DV90 (Lung), read-out: IC50 [M] (ProliFiler-140)): 9e-08 M and 9.04e-08 M | IC50 (Detroit562 (Head/Neck), read-out: IC50 [M] (ProliFiler-140)): 3.15e-07 M and 3.2e-07 M | IC50 (EFM-19 (Breast), read-out: IC50 [M] (ProliFiler-140)): 9.6e-07 M and 9.62e-07 M | IC50 (EFM-192A (Breast), read-out: IC50 [M] (ProliFiler-140)): 1.8e-06 M and 1.78e-06 M | IC50 (EFO-27 (Ovary), read-out: IC50 [M] (ProliFiler-140)): 9e-07 M | IC50 (EPLC-272H (Lung), read-out: IC50 [M] (ProliFiler-140)): 5.08e-07 M and 5.1e-07 M | IC50 (H4 (Brain), read-out: IC50 [M] (ProliFiler-140)): 8.08e-08 M and 8.1e-08 M | IC50 (H460 (Lung), read-out: IC50 [M] (ProliFiler-140)): 5.1e-08 M and 5.12e-08 M | IC50 (H1299 (Lung), read-out: IC50 [M] (ProliFiler-140)): 7.27e-07 M and 7.3e-07 M | IC50 (H2228 (Lung), read-out: IC50 [M] (ProliFiler-140)): 3.99e-07 M and 4e-07 M | IC50 (HCC38 (Breast), read-out: IC50 [M] (ProliFiler-140)): 1.65e-07 M and 1.7e-07 M | IC50 (HCC202 (Breast), read-out: IC50 [M] (ProliFiler-140)): 9e-07 M and 8.97e-07 M | IC50 (HCC827 (Lung), read-out: IC50 [M] (ProliFiler-140)): 1.4e-06 M and 1.38e-06 M | IC50 (HCC 1569 (Breast), read-out: IC50 [M] (ProliFiler-140)): 9.9e-07 M and 9.93e-07 M | IC50 (HCT116 (Colon), read-out: IC50 [M] (ProliFiler-140)): 4.41e-07 M and 4.4e-07 M | IC50 (HCT116, read-out: IC50): 4.4e-07 M | IC50 (HCT-15 (Colon), read-out: IC50 [M] (ProliFiler-140)): 5.46e-07 M and 5.5e-07 M | IC50 (HCT-15, read-out: IC50): 5.5e-07 M | IC50 (HEC-1-A (Endometrium), read-out: IC50 [M] (ProliFiler-140)): 1.8e-06 M and 1.84e-06 M | IC50 (HEC-1-B (Endometrium), read-out: IC50 [M] (ProliFiler-140)): 3.3e-06 M and 3.29e-06 M | IC50 (HL-60 (Blood), read-out: IC50 [M] (ProliFiler-140)): 1e-07 M and 1.01e-07 M | IC50 (HL-60, read-out: IC50): 1e-07 M | IC50 (HT-29 (Colon), read-out: IC50 [M] (ProliFiler-140)): 1e-06 M and 9.98e-07 M | IC50 (HT-29, read-out: IC50): 1e-06 M | IC50 (HT-1080 (Fibrosarcoma), read-out: IC50 [M] (ProliFiler-140)): 3.2e-07 M | IC50 (Hep3B2.1-7 (Liver), read-out: IC50 [M] (ProliFiler-140)): 1.3e-06 M and 1.34e-06 M | IC50 (Hs 746T (Stomach), read-out: IC50 [M] (ProliFiler-140)): 9.9e-07 M and 9.89e-07 M | IC50 (HuH7 (Liver), read-out: IC50 [M] (ProliFiler-140)): 6.47e-07 M and 6.5e-07 M | IC50 (Hutu 80 (Duodenum), read-out: IC50 [M] (ProliFiler-140)): 5.37e-08 M and 5.4e-08 M | IC50 (Ishikawa (Endometrium), read-out: IC50 [M] (ProliFiler-140)): 2.6e-08 M and 2.61e-08 M | IC50 (J82 (Bladder), read-out: IC50 [M] (ProliFiler-140)): 7.2e-07 M | IC50 (JIMT-1 (Breast), read-out: IC50 [M] (ProliFiler-140)): 1.6e-06 M | IC50 (JVM-3 (Blood), read-out: IC50 [M] (ProliFiler-140)): 3.14e-08 M and 3.1e-08 M | IC50 (Jurkat (Blood), read-out: IC50 [M] (ProliFiler-140)): 9.37e-08 M and 9.4e-08 M | IC50 (K562 (Blood), read-out: IC50 [M] (ProliFiler-140)): 1.1e-06 M and 1.11e-06 M | IC50 (KARPAS 299 (Blood), read-out: IC50 [M] (ProliFiler-140)): 7.07e-07 M and 7.1e-07 M | IC50 (KG-1 (Blood), read-out: IC50 [M] (ProliFiler-140)): 6.22e-07 M and 6.2e-07 M | IC50 (KG-1 a (Blood), read-out: IC50 [M] (ProliFiler-140)): 5.5e-07 M | IC50 (KMS-12-BM (Blood), read-out: IC50 [M] (ProliFiler-140)): 3.43e-07 M and 3.4e-07 M | IC50 (Kato III (Stomach), read-out: IC50 [M] (ProliFiler-140)): 1.6e-06 M and 1.62e-06 M | IC50 (LN229 (Brain), read-out: IC50 [M] (ProliFiler-140)): 7.23e-07 M and 7.2e-07 M | IC50 (LOU-NH91 (Lung), read-out: IC50 [M] (ProliFiler-140)): 3.1e-07 M and 3.07e-07 M | IC50 (LOVO (Colon), read-out: IC50 [M] (ProliFiler-140)): 2.22e-07 M and 2.2e-07 M | IC50 (LP-1 (Blood), read-out: IC50 [M] (ProliFiler-140)): 7.2e-07 M and 7.16e-07 M | IC50 (LnCap (Prostate), read-out: IC50 [M] (ProliFiler-140)): 8.9e-07 M and 8.94e-07 M | IC50 (M07e (Blood), read-out: IC50 [M] (ProliFiler-140)): 1.38e-07 M and 1.4e-07 M | IC50 (MCAS (Ovary), read-out: IC50 [M] (ProliFiler-140)): 8.2e-07 M and 8.18e-07 M | IC50 (MCF-7 (Breast), read-out: IC50 [M] (ProliFiler-140)): 2.1e-07 M and 2.15e-07 M | IC50 (MDA MB 231 (Breast), read-out: IC50 [M] (ProliFiler-140)): 7.4e-07 M | IC50 (MDA MB 435 (Skin), read-out: IC50 [M] (ProliFiler-140)): 1.1e-06 M and 1.08e-06 M | IC50 (MDA-MB-468 (Breast), read-out: IC50 [M] (ProliFiler-140)): 1.5e-07 M and 1.48e-07 M
